Measured values: PubChem BioAssay (NCI)
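Protocol summary: plate cells (96-well), add compound at 5 concentrations, incubate 48 h, interpolate endpoints linearly. Here, GI50 denotes the concentration required for 50% inhibition of growth. At the TGI there is no net growth.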

Tests used:
Experiment in all cases: NCI anticancer screen, dose series, 48 h
786-0 renal = tested on: 786-0 renal
SW-620 colon = tested on: SW-620 colon
UACC-62 melanoma = tested on: UACC-62 melanoma
SK-MEL-5 melanoma = tested on: SK-MEL-5 melanoma
SF-268 CNS = tested on: SF-268 CNS
NCI-H522 lung = tested on: NCI-H522 lung
SF-539 CNS = tested on: SF-539 CNS
A498 renal = tested on: A498 renal
SR leukemia = tested on: SR leukemia
BT-549 breast = tested on: BT-549 breast

SMILES	TGI (786-0 renal) [µM]	TGI (SW-620 colon) [µM]	TGI (UACC-62 melanoma) [µM]	TGI (SK-MEL-5 melanoma) [µM]	TGI (SF-268 CNS) [µM]	TGI (NCI-H522 lung) [µM]	TGI (SF-539 CNS) [µM]	TGI (A498 renal) [µM]	GI50 (786-0 renal) [nM]	GI50 (SW-620 colon) [µM]	GI50 (UACC-62 melanoma) [µM]	GI50 (SK-MEL-5 melanoma) [nM]	GI50 (SF-268 CNS) [nM]	GI50 (NCI-H522 lung) [µM]	GI50 (SF-539 CNS) [nM]	GI50 (A498 renal) [µM]	GI50 (SR leukemia) [nM]	TGI (SR leukemia) [µM]	GI50 (BT-549 breast) [µM]	TGI (BT-549 breast) [µM]
O=S(O)CCCCSSCc1ccccc1CSSCCCCS(=O)O	> 100	89.5	25.3	23.2	39.3	18.7	64.2	> 100	–	–	–	–	–	–	–	–	–	–	–	–
CC(=O)Oc1ccccc1C(=O)N=C1[Se]CCN1C(=O)c1ccccc1OC(C)=O	2.8	6.09	2.84	2.05	1.79	2.7	3.21	2.4	1460	1.52	1.04	566	483	1.22	1060	1.02	1510	> 100	–	–
O=C(CCCN1CC=C(n2c(=O)[nH]c3ccccc32)CC1)c1ccc(F)cc1	> 100	> 100	> 100	28.6	–	> 100	–	–	29300	53.5	42.7	14900	–	65.1	–	–	29600	89.1	24.9	86.8
O=C(/C=C/c1ccccc1)/C=C/c1ccccc1	85.5	40.8	87.1	> 100	66.4	–	45	> 100	–	–	–	–	–	–	–	–	–	67.1	–	–
COc1ccc(-c2cc(-c3cccn3C)c(C#N)c(N)n2)cc1OC	> 100	> 100	> 100	> 100	> 100	> 100	> 100	> 100	> 100000	> 100	86.3	> 100000	82400	40.4	82400	82.8	–	–	64	> 100
COc1cc2c(cc1OC)C13CCN4CC5=CCOC6CC(=O)N2C1C6C5CC43O (stereo not drawn)	> 100	> 100	> 100	> 100	> 100	> 100	> 100	> 100	–	–	–	–	–	–	–	–	–	–	–	> 100
CCCCCCCCCc1cc(=O)c2c(O)cccc2o1	> 100	> 100	> 100	46.6	> 100	> 100	> 100	–	–	–	–	–	–	–	–	–	–	> 100	–	–
CCOC(=O)[C@H](CCCNC(=O)OC(C)(C)C)NCc1ccc(OC)c(OC)c1	> 100	> 100	> 100	> 100	> 100	> 100	> 100	> 100	–	–	–	–	–	–	–	–	–	> 100	–	–
Cc1[nH][nH]c(=O)c1C=Nc1ccc(-c2nc3ccccc3[nH]2)cc1	38.3	55.7	38	36.2	51.1	78.1	41.6	–	18900	25.6	15.5	18000	14400	31.1	22200	–	39700	97.1	36.2	97.1
CN(C)Cc1c[nH]c2c1C(=O)c1c(c(O)c3ccccc3c1O)C2=O	33.6	14.6	30.1	23.3	23.9	35.4	–	25.3	10500	3.37	16.3	11200	8240	12.6	–	12.1	–	–	13.7	26.5
O=C1CSC(Cc2nc3ccccc3[nH]2)=N1	32.6	> 100	37.7	26.6	> 31.6	40.4	43.1	10.4	–	–	–	–	–	–	–	–	–	25.6	–	–
CCOC(=O)C1N(S(=O)(=O)c2ccc(C)cc2)CCC12C(c1ccc(OC)cc1)NC1CCCCC12 (stereo not drawn)	> 100	> 100	> 100	> 100	> 100	> 100	> 100	> 100	–	–	–	–	–	–	–	–	–	–	–	–
O=C(CCC(=O)Nc1cccc(Cl)c1)CC(=O)c1ccc(Cl)cc1	> 100	> 100	> 100	–	> 100	> 100	> 100	–	–	–	–	–	–	–	–	–	–	> 100	–	–
CCN(CC)CCOc1ccc(/C(=C(\C)c2ccc(F)c(OC)c2)c2ccc(Cl)cc2)cc1	5.11	4.28	5.06	5.21	5.82	5.79	4.74	–	2700	2.12	2.71	2810	2690	2.73	2450	–	2010	6.91	2.67	5.13
O=C(Nc1ccc([N+](=O)[O-])cc1)C1C(=O)C(=O)N(c2ccc([N+](=O)[O-])cc2)C1=O (stereo not drawn)	> 100	33.9	19.5	> 100	> 100	> 100	> 100	> 100	–	–	–	–	–	–	–	–	–	> 100	–	–
Cc1ccc(N(CSc2ccc(Cl)cc2)CSc2ccc(Cl)cc2)cc1	7.66	11.5	2.91	2.5	12.4	3.18	2.59	–	1660	2.22	0.818	1180	909	1.49	1020	–	1040	4.86	0.334	1.54
N#CC(/C(=N/NC(=O)C(=O)NN)C(=O)NC12CC3CC(CC(C3)C1)C2)c1ccccc1 (stereo not drawn)	> 100	> 100	> 100	> 100	> 100	> 100	> 100	> 100	–	–	–	–	–	–	–	–	–	> 100	–	–
COC(=O)/C=C/C1C(C(=O)OC)C2(C(=O)OC)CCC1(C(=O)OC)N2 (stereo not drawn)	> 100	> 100	> 100	> 100	> 100	> 100	> 100	> 100	–	–	–	–	–	–	–	–	–	> 100	–	–
CCCCCc1c(C)[nH]c(/C=C2\N=C(c3ccc[nH]3)C=C2CC)c1C	0.0352	0.17	0.043	0.0278	0.802	0.106	0.172	0.267	< 10	< 0.01	0.0158	14.1	< 10	< 0.01	15.3	< 0.0228	–	–	0.0145	0.17

SMILES	TGI (786-0 renal) [µM]	TGI (SW-620 colon) [µM]	TGI (UACC-62 melanoma) [µM]	TGI (SK-MEL-5 melanoma) [µM]	TGI (SF-268 CNS) [µM]	TGI (NCI-H522 lung) [µM]	TGI (SF-539 CNS) [µM]	TGI (A498 renal) [µM]	GI50 (786-0 renal) [nM]	GI50 (SW-620 colon) [µM]	GI50 (UACC-62 melanoma) [µM]	GI50 (SK-MEL-5 melanoma) [nM]	GI50 (SF-268 CNS) [nM]	GI50 (NCI-H522 lung) [µM]	GI50 (SF-539 CNS) [nM]	GI50 (A498 renal) [µM]	GI50 (SR leukemia) [nM]	TGI (SR leukemia) [µM]	GI50 (BT-549 breast) [µM]	TGI (BT-549 breast) [µM]
Nc1c(C(=O)N/N=C/c2ccc(-c3ccc(Cl)cc3)o2)cnn1-c1ccnc2c(C(F)(F)F)cccc12	> 100	> 100	> 100	> 100	> 100	> 100	> 100	> 100	> 100000	> 100	> 100	49100	> 100000	> 100	> 100000	> 100	–	–	–	–
NC(N)=N/N=C/c1cc(Cl)cc(Cl)c1O	> 100	> 100	> 100	> 100	> 100	> 100	> 100	> 100	–	–	–	–	–	–	–	–	–	–	–	–
CCOC(=O)C1=C(C)N(N)C(=S)NC1c1ccc(C)cc1 (stereo not drawn)	> 100	–	> 100	30.4	> 100	> 100	–	> 100	> 100000	–	23.3	13100	67000	18.2	–	11.2	28300	> 100	–	9.16
O/N=C\c1c(O)ccc2ccccc12	> 100	> 100	> 100	> 100	> 100	–	> 100	> 100	–	–	–	–	–	–	–	–	–	82.1	–	–
C#C[C@]1(O)CC[C@H]2[C@@H]3CC=C4c5sc(Nc6ccccc6)nc5CC[C@]4(C)[C@H]3CC[C@@]21C	2.12	5.85	6.44	3.26	10.1	6.26	1.52	3.66	655	2.06	2.13	1720	2190	2.27	370	1.34	623	> 100	–	–
O=C(CN1CCCCC1)N1CCc2c([nH]c3ccccc23)C1c1cccnc1 (stereo not drawn)	> 100	> 100	> 100	> 100	> 100	> 100	> 100	> 100	–	–	–	–	–	–	–	–	–	–	–	–
COC(=O)C12C3C4C5(C(=O)OC)C(C1C35C(=O)N(C(C)C)C(C)C)C42C(=O)N(C(C)C)C(C)C (stereo not drawn)	> 50	> 43.6	> 50	> 50	> 50	> 50	> 50	> 50	–	–	–	–	–	–	–	–	–	> 50	–	–
O=C(CCC/C(CC(=O)c1ccc(Br)cc1)=N\O)Nc1ccccc1	> 100	> 100	> 100	> 100	> 100	–	–	–	–	–	–	–	–	–	–	–	–	–	–	–
Cc1cc(C)n(CCNCCn2nc(C)cc2C)n1	> 100	> 100	> 100	> 100	> 100	> 100	> 100	> 100	–	–	–	–	–	–	–	–	–	> 100	–	–
CC(=O)Oc1ccccc1C(=O)N=C1[Se]CCCN1C(=O)c1ccccc1OC(C)=O	4.21	11.4	–	4.13	–	3.42	6.28	–	2140	3.58	–	2010	–	1.59	2660	–	2440	9.17	2.29	6.66
N#CC1Nc2ccccc2[C@@H](O)C1O (stereo partly drawn)	> 100	> 100	> 100	> 100	> 100	–	> 100	–	–	–	–	–	–	–	–	–	–	> 100	–	–
CCOC(=O)CCc1c(C)c2c(OC(C)=O)cc(OC(C)=O)cc2oc1=O	> 100	> 100	–	–	77.4	> 100	> 100	–	–	–	–	–	–	–	–	–	–	–	–	–
CC1=C(C(=O)Nc2c(C)cccc2C)C(c2ccccc2Cl)C(C(=O)Nc2c(C)cccc2C)=C(C)N1	> 100	> 100	–	> 100	> 100	> 100	> 100	> 100	–	–	–	–	–	–	–	–	–	–	–	–
c1ccc2c3ccn4cc5c(cc4c-3nc2c1)CCCC5	13.5	9.85	14.4	10.3	14.4	5.75	17.1	24.1	3460	–	3.25	2420	–	–	3400	11.6	–	–	11.3	59.6
N#C/C(=C\c1ccc(O)c(O)c1)C(N)=O	> 100	> 100	> 100	–	> 100	53.3	> 100	> 100	–	–	–	–	–	–	–	–	–	–	–	–
CC(=O)OCC1OC([S-])C(OC(C)=O)C(OC(C)=O)C1OC(C)=O.CC[PH+](CC)CC.CC[PH+](CC)CC.[Au].[Au] (stereo not drawn)	0.401	0.493	0.307	0.346	0.669	–	0.624	–	185	0.199	0.119	132	207	–	180	–	–	–	–	–
NC1CCCC[C@H]1N.N[C@@H]1CCCC[C@@H]1N.O=C(P(=O)([O-])[O-])P(=O)([O-])[O-].[Pt+4].[Pt+4]	> 100	> 100	> 100	> 100	> 100	47.4	> 100	> 100	> 100000	38.8	> 100	> 100000	> 100000	11.9	> 100000	> 100	–	–	–	–
CC(C)(C)N1CC2(CCCCC2)C1=O	> 100	> 100	> 100	> 100	> 100	> 100	> 100	> 100	–	–	–	–	–	–	–	–	–	> 100	–	–
COc1ccccc1/C=C/c1cnccn1	> 10	> 10	> 10	> 10	> 10	> 10	> 10	> 10	–	–	–	–	–	–	–	–	–	–	–	> 10
